Experimental data as given in US4175125A, “Method for treating methicillin resistant staphylococcus aureus” (Eli Lilly and Company, priority 1978, dated 1979).
In brackets after ≈: the same amount, converted by molar mass. Read-outs that look alike come from different tables or passages of the source.

Key:
[1] = tested on: Staphylococcus aureus cultures; test: Agar dilution MIC, Example 13 compound vs methicillin resistant Staphylococcus aureus; type: cell-based; details: read-out: MIC
Excerpt: The table which follows gives the minimum inhibitory concentration (MIC) in micrograms of compound per milliliter of culture (μg/ml), in comparison with similar MIC values for the known antibiotics methicillin, cephalothin and cephaloridine against the same strains of bacteria.

[2] = tested on: Streptococcus pyogenes, strain C203; test: Streptococcus pyogenes infection in mice, median effective dose (Example 12); type: in vivo
Procedure: The compound 7-[2"-(3"-chloro-4"-fluorophenyltio)acetamido]cephalosporanic acid, prepared as described in Example 8, was tested for antibiotic effectiveness against Streptococcus pyogenes, strain C203 infections in mice, and is compared with the effectiveness of cephaloridine in the same test. Experience has shown with other compounds, some of which are now commercial antibiotics, that a compound effective against Streptococcus pyrogenes, strain C203 in this test will be effective against Staphylococcus aureus strains in clinical use. This is intended as further evidence that the compounds of the method of this invention should be effective antibiotics in clinical situations.
In this test, a standard in vivo test method described by Wick, W. E., F. Streightoff, and D. H. Holmes. 1961, in J. Bacteriol., 81: 233-235 was used. The oral and subcutaneous median effective doses (ED50) necessary to cure 50 percent of the mice were calculated according to the method of Reed and Muench (Reed, L. J., and H. Meunch. 1938. Am. J. Hyg. 27: 493-497) The results were as follows: […]

[3] = tested on: methicillin-resistant Staphylococcus aureus; test: Gradient plate test (MIC) against methicillin-resistant Staphylococcus aureus; type: cell-based; details: Staphylococcus aureus, read-out: minimum inhibitory concentration (MIC)
Procedure: The method used is essentially that described by Bryson and Szybalski in 1952 (Science 116:45-46). The inoculum treatment method used for penicillin resistant Staphylococci was reported by Godzeski et al in Antimicrobial Agents and Chemotherapy, May, 1969, pp. 547-554.
A standard Falcon square plastic petri dish is used. A layer of agar (10 ml.) is poured into one of the square dishes, the dish tipped 5 mm. off the horizontal, and the agar layer allowed to harden in this position. This bottom layer of agar contains the antibiotic, the serum, and/or other material to be tested. The medium is Difco Penassay Agar containing 2 percent agar. We routinely used 4 ml. of human or horse serum for "serum-inactivation" testing. […] Therefore, serum is routinely added only to the bottom layer.
After the bottom, slanted layer of agar medium has hardened, the plate is placed flat and another 10 ml. of medium added and allowed to harden.
The inoculum of resistant Staphylococci, as described, is prepared by diluting the water suspension 1/50 in 0.25 percent agar in sterile water or saline. For Gram negative organisms, an overnight broth culture is diluted 1/50 in the 0.25 percent agar-water. This dilution is thoroughly shaken to evenly suspend the bacteria. To streak the plate, we use a 1 ml. pipet containing an aliquot of the final […] agar dilution. After a little practice, a smooth even stroke of inoculum can be laid down very rapidly. The trick is in the smoothness of the streak--it must be accomplished uniformly and quickly.
After 24 hours incubation at 35°-37° C. the plates are read by simply measuring the length of bacterial growth as a percentage of the entire streak distance which is then converted to the percent of antibiotic concentration in the plate.
Average values of duplicate measurements are calculated and the M.I.C.'s reported are average of 2 streaks on the plate and from 2 to 3 duplicate plates. Eight streaks can be easily placed on each plate. If sharp end points are not obtained, the middle concentration between the beginning of inhibition of the streak to the end of growth is measured. The concentration of the antibiotic under examination is varied from plate to plate in a series as follows: […]
This method of screening penicillins and cephalosporins is quite satisfactory. Control plates containing penicillin and staphcillin or prostaphlin, or other control antibiotic, are used daily for the resistant staphylococcal activity screen. The gradient plate method has shown differences between antibiotics that were not apparent by any other methods of screening. […] We believe that the gradient plate screen is more sensitive to small differences between related antibiotics than other methods and pictures of the plates can provide a permanent record. The method also lends itself readily to modification of specific purposes--e.g., cross gradients.
The compounds listed below are examples of compounds useful in the method of this invention. After the compound name there is given in parentheses, where tested, the minimum inhibitory concentrations (MIC) in micrograms per milliliter (μg/ml) for the compound in the above described gradient plate procedure test against methicillin-resistant Staphylococcus aureus, (in the absence of blood serum/in the presence of 20 percent blood serum).
and pharmaceutically acceptable salts thereof. The abbreviation "s.z." means skip zones.

[4] = culture 3055 (control), Trypticase Soy Agar with 4.5% NaCl added (5% NaCl)
[5] = culture 3055 (control), Trypticase Soy Agar, 0.5% NaCl
[6] = culture 3130, Trypticase Soy Agar with 4.5% NaCl added (5% NaCl)
[7] = culture 3130, Trypticase Soy Agar, 0.5% NaCl
[8] = culture 3131, Trypticase Soy Agar with 4.5% NaCl added (5% NaCl)
[9] = culture 3131, Trypticase Soy Agar, 0.5% NaCl
[10] = culture 3132, Trypticase Soy Agar with 4.5% NaCl added (5% NaCl)
[11] = culture 3132, Trypticase Soy Agar, 0.5% NaCl
[12] = culture 3133, Trypticase Soy Agar with 4.5% NaCl added (5% NaCl)
[13] = culture 3133, Trypticase Soy Agar, 0.5% NaCl
[14] = culture 3134, Trypticase Soy Agar with 4.5% NaCl added (5% NaCl)
[15] = culture 3134, Trypticase Soy Agar, 0.5% NaCl
[16] = culture 3135, Trypticase Soy Agar with 4.5% NaCl added (5% NaCl)
[17] = culture 3135, Trypticase Soy Agar, 0.5% NaCl
[18] = culture 3136, Trypticase Soy Agar with 4.5% NaCl added (5% NaCl)
[19] = culture 3136, Trypticase Soy Agar, 0.5% NaCl
[20] = culture 3137, Trypticase Soy Agar with 4.5% NaCl added (5% NaCl)
[21] = culture 3137, Trypticase Soy Agar, 0.5% NaCl
[22] = culture 3138, Trypticase Soy Agar with 4.5% NaCl added (5% NaCl)
[23] = culture 3138, Trypticase Soy Agar, 0.5% NaCl
[24] = culture 3139, Trypticase Soy Agar with 4.5% NaCl added (5% NaCl)
[25] = culture 3139, Trypticase Soy Agar, 0.5% NaCl
[26] = culture H232 (control), Trypticase Soy Agar with 4.5% NaCl added (5% NaCl)
[27] = culture H232 (control), Trypticase Soy Agar, 0.5% NaCl
[28] = culture Havarmak 1136501, Trypticase Soy Agar with 4.5% NaCl added (5% NaCl)
[29] = culture Havarmak 1136501, Trypticase Soy Agar, 0.5% NaCl
[30] = culture S 61, Trypticase Soy Agar with 4.5% NaCl added (5% NaCl)
[31] = culture S 61, Trypticase Soy Agar, 0.5% NaCl
[32] = culture Seattle 966, Trypticase Soy Agar with 4.5% NaCl added (5% NaCl)
[33] = culture Seattle 966, Trypticase Soy Agar, 0.5% NaCl

Structure (SMILES)	MIC [1, 4] [µg/mL]	MIC [1, 5] [µg/mL]	MIC [1, 6] [µg/mL]	MIC [1, 7] [µg/mL]	MIC [1, 8] [µg/mL]	MIC [1, 9] [µg/mL]	MIC [1, 10] [µg/mL]	MIC [1, 11] [µg/mL]	MIC [1, 12] [µg/mL]	MIC [1, 13] [µg/mL]	MIC [1, 14] [µg/mL]	MIC [1, 15] [µg/mL]	MIC [1, 16] [µg/mL]	MIC [1, 17] [µg/mL]	MIC [1, 18] [µg/mL]	MIC [1, 19] [µg/mL]	MIC [1, 20] [µg/mL]	MIC [1, 21] [µg/mL]	MIC [1, 22] [µg/mL]	MIC [1, 23] [µg/mL]	other results
COc1cccc(OC)c1C(=O)N[C@@H]1C(=O)N2[C@@H]1SC(C)(C)[C@@H]2C(=O)O [Methicillin, methicillin]	1 (≈ 2.63 µM)	1 (≈ 2.63 µM)	16 (≈ 42.1 µM)	4 (≈ 10.5 µM)	32 (≈ 84.1 µM)	4 (≈ 10.5 µM)	8 (≈ 21 µM)	4 (≈ 10.5 µM)	2 (≈ 5.26 µM)	2 (≈ 5.26 µM)	32 (≈ 84.1 µM)	8 (≈ 21 µM)	32 (≈ 84.1 µM)	4 (≈ 10.5 µM)	64 (≈ 168 µM)	4 (≈ 10.5 µM)	64 (≈ 168 µM)	8 (≈ 21 µM)	32 (≈ 84.1 µM)	8 (≈ 21 µM)	MIC [1, 24]: 1 µg/mL (≈ 2.63 µM); MIC [1, 25]: 2 µg/mL (≈ 5.26 µM); MIC [1, 26]: 1 µg/mL (≈ 2.63 µM); MIC [1, 27]: 2 µg/mL (≈ 5.26 µM); MIC [1, 28]: 64 µg/mL (≈ 168 µM); MIC [1, 29]: 8 µg/mL (≈ 21 µM); MIC [1, 30]: 32 µg/mL (≈ 84.1 µM); MIC [1, 31]: 4 µg/mL (≈ 10.5 µM); MIC [1, 32]: 16 µg/mL (≈ 42.1 µM); MIC [1, 33]: 4 µg/mL (≈ 10.5 µM)
O=C(Cc1cccs1)N[C@@H]1C(=O)N2C(C(=O)[O-])=C(C[n+]3ccccc3)CS[C@H]12 [Cephaloridine, cephaloridine, reference compound]	0.13 (≈ 0.313 µM)	0.03 (≈ 0.0722 µM)	1 (≈ 2.41 µM)	0.5 (≈ 1.2 µM)	1 (≈ 2.41 µM)	0.5 (≈ 1.2 µM)	0.5 (≈ 1.2 µM)	0.25 (≈ 0.602 µM)	0.25 (≈ 0.602 µM)	0.13 (≈ 0.313 µM)	1 (≈ 2.41 µM)	1 (≈ 2.41 µM)	4 (≈ 9.63 µM)	0.5 (≈ 1.2 µM)	4 (≈ 9.63 µM)	0.13 (≈ 0.313 µM)	4 (≈ 9.63 µM)	4 (≈ 9.63 µM)	4 (≈ 9.63 µM)	1 (≈ 2.41 µM)	MIC [1, 24]: 0.13 µg/mL (≈ 0.313 µM); MIC [1, 25]: 0.5 µg/mL (≈ 1.2 µM); MIC [1, 26]: 0.13 µg/mL (≈ 0.313 µM); MIC [1, 27]: 0.06 µg/mL (≈ 0.144 µM); MIC [1, 28]: 8 µg/mL (≈ 19.3 µM); MIC [1, 29]: 1 µg/mL (≈ 2.41 µM); MIC [1, 30]: 1 µg/mL (≈ 2.41 µM); MIC [1, 31]: 1 µg/mL (≈ 2.41 µM); MIC [1, 32]: 0.13 µg/mL (≈ 0.313 µM); MIC [1, 33]: 0.5 µg/mL (≈ 1.2 µM); ED50 ([2]; C203, po): 0.323 mg/kg; ED50 ([2]; C203, sc): 0.1 mg/kg
CC(=O)OCC1=C(C(=O)O)N2C(=O)C(NC(=O)CSc3cc(Cl)ccc3Cl)C2SC1 (stereo not shown) [Example 2, 7-(2,5-Dichlorophenylthioacetamido)-cephalosporanic acid]	–	–	–	–	–	–	–	–	–	–	–	–	–	–	–	–	–	–	–	–	MIC ([3]; in the absence of blood serum): 0.8 µg/mL (≈ 1.63 µM); MIC ([3]; in the presence of 20 percent blood serum): 1 µg/mL
